Test results from patent US6946297B2, “System for stabilizing samples” (priority 1999, dated 2005).

Tests used:
Type in all cases: cell-based
Enterobacter aerogenes = assay: Survival of organisms in inoculated urine with preservative components, 24 hours at room temperature; set-up: key to Survival value enae: 24 h count / control count; 1 = no change, 0.1 = 1-log decrease
Description: (§1) Antimicrobial activity for each active ingredient in the Chemistat I formulations was first determined for representative organisms listed in Table I. A culture for each organism of interest on blood agar was incubated at 36° C. overnight. About two to three colonies of the organism were transferred via sterile swab from the blood agar culture into a 5 ml Mueller-Hinton broth culture tube, which was then incubated on a rotator for about two to three hours at 36° C. Using a spectrophotometer set at a wavelength of 630 nm, the turbidity of broth culture was adjusted by the addition of Mueller-Hinton broth to an optical density equivalent to approximately 1×10^8 colony forming units (cfu)/ml to form an inoculum solution. An aliquot of the inoculum solution was plated onto blood agar to determine the actual control organism count. For each component listed in Table II, the component was added to filter-sterilized pooled normal urine at the concentration given in Table II to form a test sample. The test sample was then inoculated with an aliquot of the inoculum solution providing a final organism count of approximately 1×10^6 cfu/ml of test sample. Immediately after thorough mixing, an aliquot of the test sample was removed and serially diluted in PBS, and serial dilutions were plated onto blood agar to determine the Time Zero organism count. The inoculated plates were incubated at 36° C., and organism counts were recorded after 18-24 hours. After incubating the test sample for 24 hours at room temperature, an aliquot of the test sample was again removed, serially diluted in PBS and plated onto blood agar. After incubating for 18-24 hours at 36° C., organism counts were obtained. The organism count obtained after 24 hours incubation at room temperature was divided by the control organism count to provide the survival value of each organism as recorded in Table II. With respect to changes in microbial count, a survival value of 1 represents no change; a survival value of 0.1 indicates a 1-log decrease; a survival value of 10 indicates a 1-log increase; and a survival value of 0.000 represents a decrease of greater than or equal to 3-logs. In comparison, the lower the survival value, the greater the component's capacity for controlling organism growth.

Enterococcus faecalis = assay: as above; set-up: key to Survival value enfa: 24 h count / control count; 1 = no change, 0.1 = 1-log decrease
Description: as §1

Proteus vulgaris = assay: as above; conditions: for Concentration inhibitory against Proteus vulgaris (ineffective up to = >): component alone
Description: as §1

Pseudomonas aeruginosa = assay: as above; conditions: for Concentration inhibitory against Pseudomonas aeruginosa (ineffective up to = >): component alone
Description: as §1

Klebsiella pneumoniae = assay: as above; conditions: for Concentration inhibitory against Klebsiella pneumoniae (ineffective up to = >): component alone
Description: as §1

Candida albicans = assay: as above; set-up: key to Survival value caal: 24 h count / control count; 1 = no change, 0.1 = 1-log decrease
Description: as §1

Escherichia coli = assay: as above; set-up: key to Survival value esco: 24 h count / control count; 1 = no change, 0.1 = 1-log decrease
Description: as §1

[1] = test system: microorganisms of interest; assay: Antimicrobial (cidal) activity against the organisms of interest taken together; conditions: component alone
Description: as §1, with “With respect to changes in microbial count, a survival value of 1 represents no change; a survival value of 0.1 indicates a 1-log decrease; a survival value of 10 indicates a 1-log increase; and a survival value of 0.000 represents a decrease of greater than or equal to 3-logs. In comparison, the lower the survival value, the greater the component's capacity for controlling organism growth.” left out

## CCOC(=O)c1ccc(O)cc1 [Ethyl parahydroxybenzoate, ethyl parahydroxybenzoate]
Enterobacter aerogenes; component alone
  Concentration inhibitory against Enterobacter aerogenes (ineffective up to = >): 1 mg/mL
Enterobacter aerogenes; single component at 1 mg/ml
  Survival value enae: 0.208
Enterococcus faecalis; component alone
  Concentration inhibitory against Enterococcus faecalis (ineffective up to = >): > 1 mg/mL
Enterococcus faecalis; single component at 0.5 mg/ml
  Survival value enfa: tntc
Enterococcus faecalis; single component at 1 mg/ml
  Survival value enfa: tntc
Proteus vulgaris
  Concentration inhibitory against Proteus vulgaris (ineffective up to = >): > 1 mg/mL
Proteus vulgaris; single component at 0.5 mg/ml
  Survival value prvu: tntc
Pseudomonas aeruginosa
  Concentration inhibitory against Pseudomonas aeruginosa (ineffective up to = >): > 1 mg/mL
Pseudomonas aeruginosa; single component at 0.5 mg/ml
  Survival value psae: tntc
Pseudomonas aeruginosa; single component at 1 mg/ml
  Survival value psae: tntc
Klebsiella pneumoniae
  Concentration inhibitory against Klebsiella pneumoniae (ineffective up to = >): > 1 mg/mL
Klebsiella pneumoniae; single component at 0.5 mg/ml
  Survival value klpn: tntc
Candida albicans; component alone
  Concentration inhibitory against Candida albicans (ineffective up to = >): 0.5 mg/mL
Candida albicans; single component at 0.5 mg/ml
  Survival value caal: 0.362
Escherichia coli; component alone
  Concentration with cidal activity against Escherichia coli: 1 mg/mL
Escherichia coli; single component at 0.5 mg/ml
  Survival value esco: tntc
Escherichia coli; single component at 1 mg/ml
  Survival value esco: 0.000

## CCC(=O)[O-].[Na+] [Sodium propionate, sodium propionate]
Enterobacter aerogenes; component alone
  Concentration inhibitory against Enterobacter aerogenes (ineffective up to = >): > 10 mg/mL
Enterococcus faecalis; component alone
  Concentration inhibitory against Enterococcus faecalis (ineffective up to = >): 10 mg/mL
Enterococcus faecalis; single component at 5 mg/ml
  Survival value enfa: tntc
Enterococcus faecalis; single component at 10 mg/ml
  Survival value enfa: 2.702
Proteus vulgaris
  Concentration inhibitory against Proteus vulgaris (ineffective up to = >): > 10 mg/mL
Proteus vulgaris; single component at 5 mg/ml
  Survival value prvu: tntc
Pseudomonas aeruginosa
  Concentration inhibitory against Pseudomonas aeruginosa (ineffective up to = >): 10 mg/mL
Pseudomonas aeruginosa; single component at 5 mg/ml
  Survival value psae: tntc
Pseudomonas aeruginosa; single component at 10 mg/ml
  Survival value psae: 0.341
Klebsiella pneumoniae
  Concentration inhibitory against Klebsiella pneumoniae (ineffective up to = >): > 10 mg/mL
Klebsiella pneumoniae; single component at 5 mg/ml
  Survival value klpn: tntc
Candida albicans; component alone
  Concentration inhibitory against Candida albicans (ineffective up to = >): > 10 mg/mL
Candida albicans; single component at 5 mg/ml
  Survival value caal: tntc
Escherichia coli; component alone
  Concentration inhibitory against Escherichia coli (ineffective up to = >): > 10 mg/mL
Escherichia coli; single component at 5 mg/ml
  Survival value esco: tntc
Escherichia coli; single component at 10 mg/ml
  Survival value esco: tntc

## CC=Cc1ccc(O)c(OC)c1 [Isoeugenol, isoeugenol]
Enterobacter aerogenes; component alone
  Concentration with cidal activity against Enterobacter aerogenes: 2.5 μl/ml
Enterobacter aerogenes; single component at 1.5 μl/ml
  Survival value enae: tntc
Enterobacter aerogenes; single component at 2.5 μl/ml
  Survival value enae: 0.000
Enterococcus faecalis; component alone
  Concentration with cidal activity against Enterococcus faecalis: > 4.6 μl/ml
Enterococcus faecalis; single component at 0.2 μl/ml
  Survival value enfa: tntc
Enterococcus faecalis; single component at 0.5 μl/ml
  Survival value enfa: tntc
Enterococcus faecalis; single component at 1.5 μl/ml
  Survival value enfa: tntc
Enterococcus faecalis; single component at 2.5 μl/ml
  Survival value enfa: 0.750
Enterococcus faecalis; single component at 4.6 μl/ml
  Survival value enfa: 0.460
Proteus vulgaris; single component at 0.2 μl/ml
  Survival value prvu: tntc
Pseudomonas aeruginosa; single component at 0.2 μl/ml
  Survival value psae: tntc
Pseudomonas aeruginosa; single component at 1.5 μl/ml
  Survival value psae: tntc
Pseudomonas aeruginosa; single component at 2.5 μl/ml
  Survival value psae: 0.398
Klebsiella pneumoniae; single component at 0.2 μl/ml
  Survival value klpn: tntc
Candida albicans; component alone
  Concentration with cidal activity against Candida albicans: 2.5 μl/ml
Candida albicans; single component at 0.2 μl/ml
  Survival value caal: 0.160
Candida albicans; single component at 0.5 μl/ml
  Survival value caal: 2.786
Candida albicans; single component at 1.5 μl/ml
  Survival value caal: 0.152
Candida albicans; single component at 2.5 μl/ml
  Survival value caal: 0.000
Candida albicans; single component at 4.6 μl/ml
  Survival value caal: 0.000
[1]
  Concentration required for cidal antimicrobial action for many organisms of interest: greater than 1.5 μg/ml
Escherichia coli; component alone
  Concentration with cidal activity against Escherichia coli: 1.5 μl/ml
Escherichia coli; single component at 0.2 μl/ml
  Survival value esco: tntc
Escherichia coli; single component at 0.5 μl/ml
  Survival value esco: tntc
Escherichia coli; single component at 1.5 μl/ml
  Survival value esco: 0.000
Escherichia coli; single component at 2.5 μl/ml
  Survival value esco: 0.000
Escherichia coli; single component at 4.6 μl/ml
  Survival value esco: 0.000
